# Results as given in patent US12121530B2, “Composition and methods for treating articulating joint disorders with nucleoside reverse transcriptase inhibitors” (RHODE ISLAND HOSPITAL, priority 2018, dated 2024).
# Tested on: mouse primary chondrocytes
# Test: RT-qPCR gene expression in mouse primary chondrocytes treated with 3TC or FTC at various dosages
# Type: cell-based
# Details: mouse chondrocytes (FIG. 3H), western blot Line-1-ORF1
compound,measurement,value
"Nc1ccn([C@@H]2CS[C@H](CO)O2)c(=O)n1 [3TC, lamivudine]",L1 expression at protein level,inhibited
